In patent publication US9938260B2, “Soluble guanylate cyclase activators and their use” (GlaxoSmithKline Intellectual Property Development Limited, priority 2014, dated 2018):
Where a name gives a salt, the structure may show the parent alone.

Molecular target: T1, soluble guanylate cyclase (sGC) (Rattus norvegicus, UniProt P20595)
T1 construct: endogenous in cells; host or cells: primary rat aortic smooth muscle cells
T1 sequence (P20595 1-619): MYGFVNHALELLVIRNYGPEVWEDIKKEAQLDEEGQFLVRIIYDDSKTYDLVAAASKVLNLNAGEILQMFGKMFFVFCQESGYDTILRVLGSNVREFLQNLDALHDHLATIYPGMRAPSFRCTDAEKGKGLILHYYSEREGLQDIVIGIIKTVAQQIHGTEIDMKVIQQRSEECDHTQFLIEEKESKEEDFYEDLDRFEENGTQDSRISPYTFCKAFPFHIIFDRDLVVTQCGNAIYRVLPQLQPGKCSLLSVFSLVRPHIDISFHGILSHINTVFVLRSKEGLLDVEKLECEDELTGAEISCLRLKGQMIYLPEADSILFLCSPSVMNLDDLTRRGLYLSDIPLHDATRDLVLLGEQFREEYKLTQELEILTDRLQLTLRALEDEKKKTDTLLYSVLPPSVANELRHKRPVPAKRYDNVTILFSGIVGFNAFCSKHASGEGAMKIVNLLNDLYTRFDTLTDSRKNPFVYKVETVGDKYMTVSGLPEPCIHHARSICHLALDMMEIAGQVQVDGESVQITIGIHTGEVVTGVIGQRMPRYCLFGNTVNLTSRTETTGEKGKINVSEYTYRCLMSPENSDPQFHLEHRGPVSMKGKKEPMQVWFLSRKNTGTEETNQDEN
T1 sequence (P19686 1-690 partner): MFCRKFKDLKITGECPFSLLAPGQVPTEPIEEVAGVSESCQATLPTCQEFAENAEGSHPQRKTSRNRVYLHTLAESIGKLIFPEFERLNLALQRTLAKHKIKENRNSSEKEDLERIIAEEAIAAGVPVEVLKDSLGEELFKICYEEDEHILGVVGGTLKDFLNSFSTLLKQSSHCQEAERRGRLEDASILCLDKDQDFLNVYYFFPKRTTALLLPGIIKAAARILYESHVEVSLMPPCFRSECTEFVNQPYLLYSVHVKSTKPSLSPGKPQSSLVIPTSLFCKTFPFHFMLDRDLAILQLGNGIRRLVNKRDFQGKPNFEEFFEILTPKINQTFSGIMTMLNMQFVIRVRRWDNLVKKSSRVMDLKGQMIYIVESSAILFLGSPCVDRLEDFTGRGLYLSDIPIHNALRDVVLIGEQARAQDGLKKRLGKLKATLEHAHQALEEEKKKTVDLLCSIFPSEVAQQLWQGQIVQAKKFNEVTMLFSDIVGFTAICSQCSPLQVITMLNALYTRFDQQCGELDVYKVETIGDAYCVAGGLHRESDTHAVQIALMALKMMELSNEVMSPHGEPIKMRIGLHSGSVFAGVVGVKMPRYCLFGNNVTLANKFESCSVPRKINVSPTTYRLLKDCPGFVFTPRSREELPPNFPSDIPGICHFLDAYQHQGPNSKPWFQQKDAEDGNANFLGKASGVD
Assay: Biological cellular assay: sGC activity by phosphorylation of VASP in rat aortic smooth muscle cells
Assay type: cell-based
Conditions: primary rat aortic smooth muscle cells, pre-incubated with 10 μM ODQ, 30 min at 37° C., phospho-VASP (pSer239) fluorescent signal; read-out: Cell assay pEC50 (converted)
Procedure: The activity of soluble guanylate cyclase (sGC) was tested in an assay based on measuring phosphorylation of the protein kinase G (PKG) substrate vasodilator-stimulated phosphoprotein (VASP) in rat aortic smooth muscle cells. […] Dimethylsulfoxide (DMSO) vehicle and varying concentrations of the compound to be tested were then added. Following a 30 min incubation at 37° C., media was aspirated and the cells were rinsed with phosphate-buffered saline (PBS) and fixed with 4% formaldehyde in PBS by incubating at room temperature for 20 min. Cells were then washed with PBS and permeabilized for 10 min using 0.1% triton X-100 in PBS. Following PBS rinsing, the cells were blocked for 90 min at room temperature with blocking buffer. The buffer was aspirated and the cells were treated overnight at 4° C. with primary antibody (pSer239-VASP, rabbit polyclonal Ab) diluted 1:500 in blocking buffer. Following three washes with 0.05% Tween 20, the cells were treated for 1 h at room temperature with a fluorescent labeled secondary antibody (IRDye® 800CW Donkey Anti-Rabbit IgG) diluted 1:2500 in blocking buffer with 0.05% Tween 20. Following two washes with PBS, infrared fluorescence was measured using an Odyssey Infrared Imaging System. The activity of a test compound was determined as the pEC50 value which is the concentration able to increase by 50% (vs. Bmax) the phospho-VASP fluorescent signal. Front. Pharmacol., 5 Jul. 2012|doi: 10.3389/fphar.2012.00128, Volume 3 July, 2012, Article number 128.

Compared with `COCC(=O)N1CCC(c2ccc(COc3c(F)cc(F)cc3-c3cccc(N4CCC(C(=O)O)CC4)n3)c(C)c2)CC1` [Example 60, 1-(6-(3,5-difluoro-2-((4-(1-(2-methoxyacetyl)piperidin-4-yl)-2-methylbenzyl)oxy)phenyl)pyridin-2-yl)piperidine-4-carboxylic acid, Sodium salt], `Cc1cc(C2CCN(C(=O)CC#N)CC2)ccc1COc1c(F)cc(F)cc1-c1cccc(N2CCC(C(=O)O)CC2)n1` [Example 63, 1-(6-(2-((4-(1-(2-cyanoacetyl)piperidin-4-yl)-2-methylbenzyl)oxy)-3,5-difluorophenyl)pyridin-2-yl)piperidine-4-carboxylic acid, Sodium salt] is 3.2-fold higher in EC50: 0.126 nM for the first, 0.398 nM for the second.

First: Cc1cc(C2CCN(C(=O)CC3CC3)CC2)ccc1COc1c(F)cc(F)cc1-c1cccc(N2CCC(C(=O)O)CC2)n1 [Example 66, 1-(6-(2-((4-(1-(2-cyclopropylacetyl)piperidin-4-yl)-2-methylbenzyl)oxy)-3,5-difluorophenyl)pyridin-2-yl)piperidine-4-carboxylic acid, Sodium salt]
Second: Cc1cc(C2CCN(C(=O)CC3COC3)CC2)ccc1COc1c(F)cc(F)cc1-c1cccc(N2CCC(C(=O)O)CC2)n1 [Example 76, 1-(6-(3,5-difluoro-2-((2-methyl-4-(1-(2-(oxetan-3-yl)acetyl)piperidin-4-yl)benzyl)oxy)phenyl)pyridin-2-yl)piperidine-4-carboxylic acid, Sodium salt]
The EC50 of the first is 3.2-fold lower: 0.316 nM for the first, 1 nM for the second.

Going from `Cc1cc(C2CCN(C(=O)C3CCOC3)CC2)ccc1COc1c(F)cc(F)cc1-c1cccc(N2CCC(C(=O)O)CC2)n1` (stereo not shown) [Example 69, 1-(6-(3,5-difluoro-2-((2-methyl-4-(1-(tetrahydrofuran-3-carbonyl)piperidin-4-yl)benzyl)oxy)phenyl)pyridin-2-yl)piperidine-4-carboxylic acid, Sodium salt] to `Cc1cc(C2CCN(C(=O)[C@H]3CCOC3)CC2)ccc1COc1c(F)cc(F)cc1-c1cccc(N2CCC(C(=O)O)CC2)n1` [Example 72, (S)-1-(6-(3,5-difluoro-2-((2-methyl-4-(1-(tetrahydrofuran-3-carbonyl)piperidin-4-yl)benzyl)oxy)phenyl)pyridin-2-yl)piperidine-4-carboxylic acid, Sodium salt], the EC50 rises from 0.251 nM to 0.427 nM (1.7-fold).

First: Cc1cc(C2CCN(C(=O)[C@@H]3CCOC3)CC2)ccc1COc1c(F)cc(F)cc1-c1cccc(N2CCC(C(=O)O)CC2)n1 [Example 73, (R)-1-(6-(3,5-difluoro-2-((2-methyl-4-(1-(tetrahydrofuran-3-carbonyl)piperidin-4-yl)benzyl)oxy)phenyl)pyridin-2-yl)piperidine-4-carboxylic acid, Sodium salt]
Second: Cc1cc(C2CCN(C(=O)CC3CCOC3)CC2)ccc1COc1c(F)cc(F)cc1-c1cccc(N2CCC(C(=O)O)CC2)n1 (stereo not shown) [Example 79, 1-(6-(3,5-difluoro-2-((2-methyl-4-(1-(2-(tetrahydrofuran-3-yl)acetyl)piperidin-4-yl)benzyl)oxy)phenyl)pyridin-2-yl)piperidine-4-carboxylic acid, Sodium salt]
The EC50 of the first is 14-fold lower: 0.0891 nM for the first, 1.26 nM for the second.

`Cc1cc(C2CCN(C(=O)CC(=O)O)CC2)ccc1COc1c(F)cc(F)cc1-c1cccc(N2CCC(C(=O)O)CC2)n1` [Example 81, 1-(6-(2-((4-(1-(2-carboxyacetyl)piperidin-4-yl)-2-methylbenzyl)oxy)-3,5-difluorophenyl)pyridin-2-yl)piperidine-4-carboxylic acid, di-Sodium salt] and `Cc1cc(C2CCN(C(=O)Cn3cncn3)CC2)ccc1COc1c(F)cc(F)cc1-c1cccc(N2CCC(C(=O)O)CC2)n1` [Example 84, 1-(6-(2-((4-(1-(2-(1H-1,2,4-triazol-1-yl)acetyl)piperidin-4-yl)-2-methylbenzyl)oxy)-3,5-difluorophenyl)pyridin-2-yl)piperidine-4-carboxylic acid, Sodium salt] are within 1.5-fold of each other in EC50: 15.8 nM for the first, 20 nM for the second.

Going from `COc1cc(C2CCN(CC(F)(F)F)CC2)ccc1COc1c(F)cc(F)cc1-c1cccc(N2CCC(C(=O)O)CC2)n1` [Example 87, 1-(6-(3,5-difluoro-2-((2-methoxy-4-(1-(2,2,2-trifluoroethyl)piperidin-4-yl)benzyl)oxy)phenyl)pyridin-2-yl)piperidine-4-carboxylic acid, Sodium salt] to `O=C(O)C1CCN(c2cccc(-c3cc(F)cc(F)c3OCc3ccc(C4CCN(CC(F)(F)F)CC4)cc3OC3COC3)n2)CC1` [Example 90, 1-(6-(3,5-difluoro-2-((2-(oxetan-3-yloxy)-4-(1-(2,2,2-trifluoroethyl)piperidin-4-yl)benzyl)oxy)phenyl)pyridin-2-yl)piperidine-4-carboxylic acid, Sodium salt], the EC50 falls from 2.51 nM to 1.26 nM (2-fold).

`Cc1cc(OC2CCN(CC(F)(F)F)CC2)ccc1COc1c(F)cc(F)cc1-c1cccc(N2CCC(C(=O)O)CC2)n1` [Example 93, 1-(6-(3,5-difluoro-2-((2-methyl-4-((1-(2,2,2-trifluoroethyl)piperidin-4-yl)oxy)benzyl)oxy)phenyl)pyridin-2-yl)piperidine-4-carboxylic acid, Sodium salt] showed an EC50 of 7.94 nM.
